{
  "source": "patent US6231894A",
  "about": "“Treatments based on discovery that nitric oxide synthase is a paraquat diaphorase” (Duke University, priority 1999, dated 2001)",
  "key": {"[1]": {"target": "T1, Recombinant rat neuronal nitric oxide synthase (NOS1) (Rattus norvegicus, UniProt P29476)", "T1 construct": "purchased Oxis, Portland, Oreg", "T1 sequence (P29476 whole entry)": "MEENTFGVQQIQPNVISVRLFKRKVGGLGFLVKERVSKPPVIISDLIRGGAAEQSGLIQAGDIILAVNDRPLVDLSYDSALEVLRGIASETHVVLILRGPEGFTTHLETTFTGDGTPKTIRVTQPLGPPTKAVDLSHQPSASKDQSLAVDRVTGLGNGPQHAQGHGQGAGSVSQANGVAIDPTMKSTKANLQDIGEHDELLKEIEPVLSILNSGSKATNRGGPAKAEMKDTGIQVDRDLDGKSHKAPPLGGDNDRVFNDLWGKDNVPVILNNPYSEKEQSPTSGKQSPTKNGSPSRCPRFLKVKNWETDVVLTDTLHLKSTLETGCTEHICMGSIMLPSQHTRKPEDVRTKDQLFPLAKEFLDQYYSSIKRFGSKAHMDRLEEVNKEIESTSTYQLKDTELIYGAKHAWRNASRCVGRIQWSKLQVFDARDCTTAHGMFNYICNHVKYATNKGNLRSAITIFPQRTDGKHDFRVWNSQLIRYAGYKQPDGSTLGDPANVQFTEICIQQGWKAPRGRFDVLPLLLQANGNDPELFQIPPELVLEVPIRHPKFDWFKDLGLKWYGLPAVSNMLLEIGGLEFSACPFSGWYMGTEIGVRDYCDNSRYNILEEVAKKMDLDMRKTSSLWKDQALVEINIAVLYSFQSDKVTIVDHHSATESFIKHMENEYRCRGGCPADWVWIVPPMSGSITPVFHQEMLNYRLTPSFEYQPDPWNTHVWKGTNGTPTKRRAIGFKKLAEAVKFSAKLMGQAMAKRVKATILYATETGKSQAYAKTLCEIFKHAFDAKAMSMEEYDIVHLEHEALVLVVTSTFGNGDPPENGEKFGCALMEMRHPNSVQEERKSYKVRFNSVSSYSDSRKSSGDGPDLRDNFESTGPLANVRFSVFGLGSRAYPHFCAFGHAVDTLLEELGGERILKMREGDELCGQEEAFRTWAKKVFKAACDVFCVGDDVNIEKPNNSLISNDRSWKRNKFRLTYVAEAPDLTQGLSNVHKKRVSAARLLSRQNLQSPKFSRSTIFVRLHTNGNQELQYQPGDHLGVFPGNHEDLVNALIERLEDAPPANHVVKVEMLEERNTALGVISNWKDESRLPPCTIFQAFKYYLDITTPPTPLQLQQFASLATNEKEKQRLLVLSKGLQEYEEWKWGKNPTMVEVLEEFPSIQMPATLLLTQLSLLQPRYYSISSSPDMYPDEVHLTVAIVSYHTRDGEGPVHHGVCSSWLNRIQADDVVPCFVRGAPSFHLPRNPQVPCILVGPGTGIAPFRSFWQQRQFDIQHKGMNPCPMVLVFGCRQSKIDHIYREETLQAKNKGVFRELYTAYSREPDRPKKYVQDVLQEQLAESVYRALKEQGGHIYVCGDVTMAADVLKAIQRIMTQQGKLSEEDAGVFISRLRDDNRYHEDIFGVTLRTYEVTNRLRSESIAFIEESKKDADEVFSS", "experiment": "NADPH oxidation (paraquat diaphorase activity) by recombinant rat neuronal nitric oxide synthase", "format": "biochemical", "procedure": "(§1) Recombinant rat neuronal nitric oxide synthase (NOS1, Oxis, Portland, Oreg.), a constitutive enzyme, was used to assay NADPH oxidation in the presence of increasing concentrations of paraquat. Reactions (0.2 ml) were performed in bis-tris propane buffer (40 mM) containing L-arginine (1 mM), CaCl2 (1.2 mM), EDTA (0.9 mM), NADPH (0.35 mM), dithiothreitol (3 mM), tetrahydrobiopterin (4 μM), catalase (1 μg/ml) and calmodulin (200 U/ml) at pH 7.4. Reactions were initiated by the addition of 1.5 U of NOS1, and the oxidation of NADPH was continuously monitored at 340 nm for 1 minute at 37° C. in a plate reader. The rate of NOS-mediated NADPH oxidation was determined using an extinction coefficient of 6.22 mM^-1 cm^-1 after subtracting the baseline of NADPH oxidation.\nThe experiment of Background Example 1 for NADPH oxidation was carried out in the presence and absence of 25 μM paraquat, without any NOS inhibitor (control), in the presence of L-NAME (1 mM) or in the presence of 1 mM L-NMMA. […] Only L-NAME shut down the NADPH oxidase activity."}, "Rabbit aortic rings": {"test_system": "Rabbit aortic rings", "experiment": "Exogenous NO-induced relaxation of aortic rings", "conditions": "2 mM paraquat, phenylephrine 1 μM; FIG. 3(b)", "procedure": "New Zealand white male rabbits weighting 3-4 kg were anaesthetized with phenobarbital (30 mg/kg/iv). The descending thoracic aorta was isolated and placed in Krebs-Henseleit buffer (pH 7.4) and stored at 4° C. until used. The vessels were cut into 5 mm rings and submerged in 25 ml double jacketed tissue baths containing Krebs-Henseleit buffer bubbled with 95% oxygen and 5% carbon dioxide at 37° C. Rings were hung on stainless steel stirrups connected to calibrated force transducers. Rings were equilibrated with 2 g resting tension for 1 hour before use and contracted with phenylephrine (1 μM). Rings were incubated with paraquat for 15 minutes before acetylcholine-induced or exogenous relaxations were performed.\nIn another case, rabbit aortic rings were constricted with 1 μM phenylephrine (initial contraction) and relaxed with increasing concentration of NO in the presence or absence of 2 mM paraquat. The results are shown in FIG. 3(b) where relaxations are expressed as a percent of the initial phenylephrine-induced contraction."}, "nitrotyrosine": {"test_system": "nitrotyrosine", "experiment": "Nitrotyrosine staining in macrophages", "format": "cell-based", "conditions": "combination of paraquat and cytomix", "procedure": "Western blot analysis was carried out as follows. Cells were lysed in ice-cold 50 mM Tris buffer (pH 7.4) containing 1% sodium dodecyl sulfate and protease inhibitor cocktail (Boehringer Mannheim). Protein (10 μg) was separated on a 4-20% gradient SDS-PAGE at 250 V for 30 minutes and transferred onto a nitrocellulase membrane at 30 V for 12 hours. Proteins were detected using polyclonal antibodies against human NOS3 (TransductionLaboratories; 1/1000) and nitrated keyhole limpet hemocyanin, nitrotyrosine (Upstate Biology; 1/5000). Primary antibodies were detected with a goat anti-rabbit-HRP antibody (Jackson; 1/15,000) and developed using an ECL kit (Amersham).\nThe RAW-264.7 monocyte macrophage cells line (TIB-71) was purchased from the American Type Culture Collection (Manassas, Va.). The cells were grown in T-75 flasks containing DMEM (Gibco-BRL, Grand Island, N.Y.) supplemented with 1 mM pyruvate, 4.5 g/L glucose and […] fetal bovine serum Macrophages were plated at 2.0×10^4 cells/well in 24-well plates and experiments were performed when cells were near confluence. […]\nNOS2 was induced in RAW cells using a mixture of interferon-γ and lipopolysaccharide (LPS) referred to as \"cytomix.\" Unstimulated (basal) and activated (cytomix) macrophages were treated with 0.1 mM paraquat or not treated with paraquat and cytotoxicity and NO production were assessed at 24 hours."}, "[2]": {"target": "T1, Recombinant rat neuronal nitric oxide synthase (NOS1)", "experiment": "NO formation by NOS1, total nitrite and nitrate (colorimetric)", "format": "biochemical", "procedure": "as §1\nThe same microtiter plates used above were left at room temperature for 5 hours and then an aliquot was assayed for total nitrite and nitrate. Nitrite and nitrate were assayed using a non-enzymatic colorimetric kit (NB-88, Oxford Biomedical Research, Oxford, Mich.). NADPH oxidation was stopped after 5 hours by addition of 25 μl of zinc sulfate (30% w/v) to precipitate the NOS protein. Nitrate was non-enzymatically converted to nitrite by overnight incubation of 150 μl of reaction mixture from the NADPH oxidation assay with cadmium beads. Nitrite concentration was determined from a standard curve using 100 μl sample or standard. As shown FIG. 1(b), the formation of NO was inhibited by paraquat."}, "restenosis": {"test_system": "restenosis", "experiment": "Working Example VIII: restenosis patient", "format": "in vivo, human", "conditions": "10 mg locally instilled via balloon, repeat angioplasty", "procedure": "A person undergoes angioplasty of the left anterior descending coronary artery. Two weeks following procedure, they present with chest pain and the radiographic evidence of restenosis. They undergo repeat angioplasty with infusion of paraquat (dosage of 10 mg), locally instilled under pressure via the balloon."}, "[3]": {"experiment": "Working Example XIII: accident victim with hypotension", "format": "in vivo, human", "conditions": "IV 0.4 milligrams per kilogram over 2 hours", "procedure": "A accident victim presents with a blood pressure of 80/60 and a hematocrit of 20. They are bleeding profusely from an abdominal would and doctors are having difficulty maintaining their blood pressure with fluid resuscitation. They are begun on an intravenous drip of paraquat of 0.4 milligrams per kilogram over 2 hours."}, "[4]": {"conditions": "conclusion of Background Example 1"}},
  "data": [
    {"compound": "C[n+]1ccc(-c2cc[n+](C)cc2)cc1", "note": "[paraquat]", "values": [
      {"measurement": "increase in NADPH oxidation over the basal rate", "setting": "[1]; 25 μM paraquat without NOS inhibitor, FIG. 2(a)", "value": "about three-fold"},
      {"measurement": "NOS diaphorase / superoxide formation", "setting": "[1]; [4]", "value": "is an NOS diaphorase and causes superoxide formation"},
      {"measurement": "paraquat diaphorase activity of NOS1", "setting": "[1]; in the presence of 1 mM L-arginine", "value": "NOS1 was found to exhibit paraquat diaphorase activity"},
      {"measurement": "NADPH oxidation", "setting": "[1]; increasing paraquat concentrations, 1 mM L-arginine, pH 7.4, 37° C., FIG. 1(a)", "value": "concentration-dependent increase in NADPH oxidation"},
      {"measurement": "effect on exogenously added NO-induced relaxation", "setting": "Rabbit aortic rings", "value": "did not inhibit exogenously added NO-induced relaxation"},
      {"measurement": "nitrotyrosine staining", "setting": "nitrotyrosine", "value": "A decrease in nitrotyrosine staining"},
      {"measurement": "NO formation (accumulation of nitrite and nitrate)", "setting": "[2]; FIG. 1(b), 5 hours at room temperature", "value": "concentration dependent decrease in NO formation"},
      {"measurement": "IC50", "setting": "[2]; concentration that inhibited NO formation by 50%, 95% confidence level 47-82 μM, 5 hours, read-out: IC50, inhibition of NO formation", "value": 62, "unit": "µM"},
      {"measurement": "NOS activity", "setting": "[2]; [4]", "value": "inhibits NOS activity"},
      {"measurement": "restenosis or angina", "setting": "restenosis", "value": "without further episode of restenosis or angina"},
      {"measurement": "patient condition", "setting": "[3]", "value": "the patient is stabilized"},
      {"measurement": "blood pressure", "setting": "[3]; from 80/60", "value": "100/70"}
    ]}
  ]
}
